Measurements: the supplement of paper PMC9663587

Assays:
Alpelisib/BYL719 = compound: Cc1nc(NC(=O)N2CCC[C@H]2C(N)=O)sc1-c1ccnc(C(C)(C)C(F)(F)F)c1 [Alpelisib/BYL719]
[1] = compound: CCCCOc1c(C(=O)c2c(F)cc(C)cc2F)c[nH]c2nncc1-2
[2] = compound: CC(=O)Nc1cccc(-n2c(=O)n(C3CC3)c(=O)c3c(Nc4ccc(I)cc4F)n(C)c(=O)c(C)c32)c1
[3] = compound: CNc1nc(-c2ccc3c(N)n[nH]c3c2)cc(N2C[C@@H](C(=O)NC3CCCCC3)CC[C@H]2C)n1
[4] = compound: CO[C@@H](C)Cn1c(=O)n(C)c2cnc3ccc(-c4cncc(C(C)(C)O)c4)cc3c21
Cabozantinib = compound: COc1cc2nccc(Oc3ccc(NC(=O)C4(C(=O)Nc5ccc(F)cc5)CC4)cc3)c2cc1OC [Cabozantinib]
AZD1775 = compound: C=CCn1c(=O)c2cnc(Nc3ccc(N4CCN(C)CC4)cc3)nc2n1-c1cccc(C(C)(C)O)n1 [AZD1775]
Luminespib/NVP-AUY922 = compound: CCNC(=O)c1noc(-c2cc(C(C)C)c(O)cc2O)c1-c1ccc(CN2CCOCC2)cc1 [Luminespib/NVP-AUY922]
Dasatinib = compound: Cc1nc(Nc2ncc(C(=O)Nc3c(C)cccc3Cl)s2)cc(N2CCN(CCO)CC2)n1 [Dasatinib]
TGX221 = compound: CC1=CN2C(=O)C=C(N=C2C(=C1)C(C)NC3=CC=CC=C3)N4CCOCC4 [TGX221]
[5] = compound: CCc1cnn2c(NCc3ccc[n+]([O-])c3)cc(N3CCCC[C@H]3CCO)nc12
AZD2014 = compound: CNC(=O)c1cccc(-c2ccc3c(N4CCOC[C@@H]4C)nc(N4CCOC[C@@H]4C)nc3n2)c1 [AZD2014]
Ipatasertib/GDC0068 = compound: CC(C)NC[C@@H](C(=O)N1CCN(c2ncnc3c2[C@H](C)C[C@H]3O)CC1)c1ccc(Cl)cc1 [Ipatasertib/GDC0068]
AZD6738 = compound: C[C@@H]1COCCN1c1cc(C2([S@](C)(=N)=O)CC2)nc(-c2cc[nH]c3nccc2-3)n1 [AZD6738]
SHP099 = compound: CC1(CCN(CC1)C2=CN=C(C(=N2)N)C3=C(C(=CC=C3)Cl)Cl)N [SHP099]
Olaparib/AZD2281 = compound: O=C(c1cc(Cc2n[nH]c(=O)c3ccccc23)ccc1F)N1CCN(C(=O)C2CC2)CC1 [Olaparib/AZD2281]
Rucaparib = compound: CNCc1ccc(-c2[nH]c3cc(F)cc4c3c2CCNC4=O)cc1 [Rucaparib]
THZ1 = compound: CN(C)C/C=C/C(=O)Nc1ccc(C(=O)Nc2cccc(Nc3ncc(Cl)c(-c4c[nH]c5ccccc45)n3)c2)cc1 [THZ1]
[6] = compound: CCC1=CN=CN=C1N2CCN(CC2)CC3=NC4=C(N3)C=C(C=C4)C(F)(F)F
R0-3306 = compound: C1=CC2=C(C=CC(=C2)C=C3C(=O)NC(=NCC4=CC=CS4)S3)N=C1 [R0-3306]
Flavopiridol = compound: CN1CC[C@H](c2c(O)cc(O)c3c(=O)cc(-c4ccccc4Cl)oc23)[C@H](O)C1 [Flavopiridol]
THZ-P1-2 = compound: CN(C)C/C=C/C(=O)NC1=CC=C(C=C1)C(=O)NC2=CC=CC(=C2)NC3=NC=NC(=C3)C4=CNC5=CC=CC=C54 [THZ-P1-2]
AZD5363 = compound: NC1(C(=O)N[C@@H](CCO)c2ccc(Cl)cc2)CCN(c2nc[nH]c3nccc2-3)CC1 [AZD5363]
senexin b = compound: CN1CCN(C(=O)c2ccc3cc(CCNc4ncnc5ccc(C#N)cc45)ccc3c2)CC1 [senexin b]
Buparlisib/NVP-BKM120 = compound: Nc1cc(C(F)(F)F)c(-c2cc(N3CCOCC3)nc(N3CCOCC3)n2)cn1 [Buparlisib/NVP-BKM120]
Saracatinib/AZD0530 = compound: CN1CCN(CCOc2cc(OC3CCOCC3)c3c(Nc4c(Cl)ccc5c4OCO5)ncnc3c2)CC1 [Saracatinib/AZD0530]
Vorinostat = compound: O=C(CCCCCCC(=O)Nc1ccccc1)NO [Vorinostat]
[7] = compound: CC(=O)c1c(C)c2cnc(Nc3ccc(N4CCNCC4)cn3)nc2n(C2CCCC2)c1=O
Doxorubicin = compound: COc1cccc2c1C(=O)c1c(O)c3c(c(O)c1C2=O)C[C@@](O)(C(=O)CO)C[C@@H]3O[C@H]1C[C@H](N)[C@H](O)[C@H](C)O1 [Doxorubicin]
BVD523 = compound: CC(C)Nc1cc(-c2c[nH]c(C(=O)N[C@H](CO)c3cccc(Cl)c3)c2)c(Cl)cn1 [BVD523]
Cediranib/AZD2171 = compound: COc1cc2c(Oc3ccc4[nH]c(C)cc4c3F)ncnc2cc1OCCCN1CCCC1 [Cediranib/AZD2171]
BSJ-01-175 = compound: CN(C)C/C=C/C(=O)Nc1ccc(O[C@@H]2CCC[C@@H](Nc3ncc(Cl)c(-c4c[nH]c5ccccc45)n3)C2)cc1 [BSJ-01-175]
[8] = compound: Cc1nn(C)c(COc2ccc(N3CCN(S(=O)(=O)N(C)C)CC3)cc2)c1-c1cccc2c(CCCOc3cccc4ccccc34)c(C(=O)O)n(CCN3CCOCC3)c12
AZD7762 = compound: NC(=O)Nc1cc(-c2cccc(F)c2)sc1C(=O)N[C@H]1CCCNC1 [AZD7762]
Torin2 = compound: C1=CC(=CC(=C1)N2C(=O)C=CC3=CN=C4C=CC(=CC4=C32)C5=CN=C(C=C5)N)C(F)(F)F [Torin2]
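Also: breast cancer and non-malignant breast epithelial cell lines, Deep Dye Drop or Dye Drop imaging, nine half-log doses, GR normalized to time-zero plates and DMSO-only controls.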

Cell Line | GR50, 72 h (Alpelisib/BYL719) | GR50, 72 h [1] | GR50, 72 h [2] | GR50, 72 h [3] | GR50, 72 h [4] | GR50, 72 h (Cabozantinib) | GR50, 72 h (AZD1775) | GR50, 72 h (Luminespib/NVP-AUY922) | GR50, 72 h (Dasatinib) | GR50, 72 h (TGX221) | GR50, 72 h [5] | GR50, 72 h (AZD2014) | GR50, 72 h (Ipatasertib/GDC0068) | GR50, 72 h (AZD6738) | GR50, 72 h (SHP099) | GR50, 72 h (Olaparib/AZD2281) | GR50, 72 h (Rucaparib) | GR50, 72 h (THZ1) | GR50, 72 h [6] | GR50, 72 h (R0-3306) | GR50, 72 h (Flavopiridol) | GR50, 72 h (THZ-P1-2) | GR50, 72 h (AZD5363) | GR50, 72 h (senexin b) | GR50, 72 h (Buparlisib/NVP-BKM120) | GR50, 72 h (Saracatinib/AZD0530) | GR50, 72 h (Vorinostat) | GR50, 72 h [7] | GR50, 72 h (Doxorubicin) | GR50, 72 h (BVD523) | GR50, 72 h (Cediranib/AZD2171) | GR50, 72 h (BSJ-01-175) | GR50, 72 h [8] | GR50, 72 h (AZD7762) | GR50, 72 h (Torin2)
MDAMB231 | > 10 µM | 1.16 µM | 0.00263 µM | > 10 µM | 0.031 µM | 4.83 µM | 0.0633 µM | 0.0058 µM | 0.0294 µM | > 10 µM | 0.0103 µM | 0.583 µM | > 10 µM | 8.89 µM | > 10 µM | > 10 µM | > 10 µM | 0.0662 µM | > 10 µM | 8.73 µM | 0.139 µM | 4.94 µM | > 10 µM | > 10 µM | 1.51 µM | 2.33 µM | 1.24 µM | 0.109 µM | 0.00504 µM | 1.13 µM | 5.1 µM | 0.0118 µM | > 10 µM | 0.163 µM | 0.0251 µM
BT20 | 2.03 µM | 0.002 µM | > 1 µM | > 10 µM | 0.00613 µM | 5.35 µM | 1.9 µM | 0.00597 µM | 0.68 µM | > 10 µM | 0.0185 µM | 0.146 µM | 0.645 µM | 5.85 µM | > 10 µM | > 10 µM | > 10 µM | 0.499 µM | > 10 µM | 5.2 µM | 0.11 µM | 6.01 µM | 2 µM | 2.3 µM | 0.638 µM | 4.37 µM | 2.22 µM | 0.0435 µM | 0.00874 µM | > 10 µM | 5.69 µM | 0.0388 µM | > 10 µM | 1.1 µM | 0.0089 µM
HCC1419 | 0.669 µM | 0.65 µM | 0.0308 µM | 7.64 µM | < 0.001 µM | > 10 µM | 2.59 µM | 0.007 µM | 0.825 µM | > 10 µM | 0.0267 µM | < 0.001 µM | > 10 µM | 8.9 µM | > 10 µM | > 10 µM | > 10 µM | 0.0611 µM | 5.28 µM | 8.88 µM | 0.191 µM | 6.2 µM | > 10 µM | 10 µM | 0.396 µM | 0.916 µM | 1.8 µM | 0.462 µM | 0.0251 µM | > 10 µM | 5.06 µM | 0.541 µM | > 10 µM | 0.0686 µM | 0.0055 µM
